Measured values reported in US20250241890A1, “1,4-DIUREAS AND 1,4-DITHIOUREAS AND USES THEREOF” (Purdue Research Foundation, priority 2024, published 2025).

Tests used:
α-synuclein (α-syn) = target: T1, α-synuclein (α-syn) (Homo sapiens, UniProt P37840); experiment: PICUP assay of α-syn oligomer formation; type: biochemical; conditions: α-syn 60 μM, compound 50 μM (~molar ratio 1:1)
T1 construct: purchased rPeptide (Watkinsville, GA)
Protocol: Chemical and peptide source. Dimethylsulfoxide (DMSO) and thioflavin-T (ThT) were purchased from Alfa Aesar (Ward Hill, MA). Recombinant α-synuclein (α-syn) was procured from rPeptide (WatKinsville, GA). The recombinant p-tau isoform 1N4R was prepared as published previously (Fortin et al. 2021, Sui et al. 2015, Liu et al. 2020). Concerning the preparation of tau 0N4R, a bacterial expression plasmid consisting of the vector pET30a carrying a cDNA encoding the human Tau 0N4R isoform was a kind gift of Dr. Benjamin Wolozin (Boston University). E. coli stock (Rosetta BL21 E. coli (CamR) containing pET30a [0N4R tau wt] (KanR)) was grown in LB medium supplemented with kanamycin (50 μg/mL) and chloramphenicol (50 μg/mL). Protein over-expression was induced by the addition of 1 mM IPTG for ˜18 hours at 37° C., and cells were pelleted by centrifugation at 6,000 g for 15 minutes at 4° C. The cells were resuspended in lysis buffer (10 mM Hepes, pH 7.4, 50 mM NaCl, 1 mM MgCl2, 1 mM PMSF, 1× PIC, and 0.5 mM DTT) and lysed by sonication at 30 seconds “On” and 1 minute “Off” at ˜30-45% power for ˜3-5 minutes. Lysate was centrifuged at 10,000 rpm for 10 minutes at 4° C., and supernatant was transferred with 7.8 ml (total) of 3M NaCl. The lysate was incubated for 10 minutes in 80° C. water bath, then cooled for 10 minutes in an ice bath. The lysate was centrifuged at 10,000 rpm at 4° C. for 10 minutes, and the supernatant was transferred to a new tube. The supernatant was dialyzed overnight against cation exchange buffer (50 mM MES, […], 1 mM DTT, pH 6.0). The dialysate was loaded onto a HiPrep SP HP column, and proteins were eluted with a linear gradient ranging from 50 mM to 1 M NaCl. General Characterizations. ^1H and ^13C {1H} NMR spectra were recorded using a 500 MHz Bruker instrument working at a frequency of 500 MHz for ^1H and at 126 MHz for ^13C. Chemical shifts are reported in ppm using residual solvent resonances as internal reference (δ 2.50 and δ 39.51 for ^1H and ^13C in DMSO-d6, respectively). ^1H NMR data are reported as follows. b=broad, s=singlet, d=doublet, t=triplet, q=quartet, and m=multiplet. Coupling constants are given in hertz. The purity of all compounds and synthetic intermediates was judged to be 95% or better based on ^1H NMR. IR measurements were performed in a Nicolet FTIR as thin films in the Purdue Drug Discovery facility. High-resolution mass spectrometry analyses were conducted at the MSU Mass Spectrometry facility. Thioflavin fluorescence assays. Thioflavin fluorescence assays were used to monitor fibril formation of commercial recombinant α-syn at a final concentration of 2 μM and treated with control DMSO and different compounds. The recombinant α-syn obtained from rPeptide has been validated with proper quality control to confirm the monomeric state of the protein. Kinetics of fibril formation have been performed using ThT as published previously.^6, 12, 13, 24 The fluorescence emission experiments were performed with the excitation and emission wavelengths set at 440 and 485 nm, respectively, with a Synergy HT multi-mode microplate reader (BioTek, Winooski, VT). Samples were measured in three replicates. Experiments were repeated three times using different α-syn stock solutions. For each time point, arbitrary units of fluorescence were calculated from the mean values normalized against the maximum value. The percentage of fluorescence intensity at the plateau phase in Table 1 was expressed as mean #SEM. Concerning the dose response curve depicted in FIG. 2, the data were plotted using GraphPad Prism. Photo-induced Cross-linking of Unmodified Proteins (PICUP) Assay. […] Different compounds were added to the protein solution at a final concentration of 50 μM, resulting in a molar ratio of 1:1. PICUP assays were performed with the following controls: samples without light exposition, without Ru(bpy) or ammonium persulfate, and without compound (i.e., 0.125% DMSO). […]

[1] = test system: neuroblastoma cells (SH-SY5Y); experiment: Crystal violet staining cytotoxicity; type: cell-based, human; conditions: four days
Protocol: The cytotoxicity of compounds 1 and 2 was assessed using human neuroblastoma cells (SH-SY5Y). Employing the crystal violet staining method, determination of the optical density was used to reflect on the percentage of cells attached to each well (6-well plate format) after treatment with control DMSO (0.14) and compound concentrations at 5 and 10 μM. Treated cells were incubated at 37° C. with 5% CO2 for four days. […] Compound 2 was also non cytotoxic at higher concentration, i.e., 10 μM. Differences were not statistically significant at […] via one-way analysis of variance ANOVA with post-test (Dunnett's multiple comparison test).

[2] = test system: neuroblastoma cells (SH-SY5Y); experiment: MTT cytotoxicity; type: cell-based, human; conditions: for cell survival, MTT, difference to DMSO control: 20 μM, 48 hours; for cytotoxicity, MTT: 5 or 10 μM, 24 hours
Protocol: MTT (3-(4,5-Dimethylthiazol-2-yl)-2,5-diphenyltetrazolium bromide) is a tetrazolium salt that is commonly used to detect reductive metabolism in cells for viability, proliferation and cytotoxicity assays. MTT was utilized in order to evaluate metabolic cellular toxicity of compounds 1, 2, and DMSO (vehicle) using human neuroblastoma cells (SH-SY5Y). Cells were diluted in cellular media in order to obtain ˜500,000 cells per condition and grown for 8-12 hours prior treatment. Cellular media (see the material and method section below) was then removed. The cells were then treated with compounds 1 or 2 at 20 μM or DMSO control at 0.05% (FIG. 9) diluted in cellular media followed by an additional incubation of 48 hours. Cellular media was removed, and the cells were treated with 50% MTT in cellular media for 2 hours at 37° C. followed by detergent solution. Differences were considered non-significant (at p<0.05) (FIG. 9) based on the one-way analysis of variance (ANOVA) without post-test performed with GraphPad Prism (version 5).
MTT assay was performed once again with compounds 1 and 2 and DMSO control at 5 and 10 μM. Each well contained ˜500,000 cells (6-well plate) prepared 8-12 hours prior to treatment. The cells were treated for 24 hours, and then MTT method was applied to assess cell survival. […] No differences were detected at p<0.001 using the one-way analysis of variance (ANOVA) with Dunnett's multiple comparison test.

Structure (SMILES)	effect on α-syn oligomer formation (high molecular weight bands) by PICUP (α-synuclein (α-syn))	percentage of oligomer reduction (PICUP, relative pixel density) (α-synuclein (α-syn)) [%]	cytotoxicity, crystal violet staining ([1]; 5 μM)	cytotoxicity, crystal violet staining ([1]; 10 μM)	cell survival, MTT, difference to DMSO control [2]	cytotoxicity, MTT [2]
S=C(Nc1ccc(NC(=S)Nc2cccc3[nH]ccc23)cc1)Nc1cccc2[nH]ccc12 [Compound 2, 3-(1H-indol-4-yl)-1-(4-{[(1H-indol-4-yl)carbamothioyl]amino}phenyl)thiourea]	reduced α-syn oligomer formation	84.2	non cytotoxic	non cytotoxic	non-significant	did not induce cytotoxicity
S=C(Nc1ccc(NC(=S)Nc2cccc3cc[nH]c23)cc1)Nc1cccc2cc[nH]c12 [Compound 8, 3-(1H-indol-7-yl)-1-(4-{[(1H-indol-7-yl)carbamothioyl]amino}phenyl)thiourea]	reduced α-syn oligomer formation	91.2	–	–	–	–
O=C(Nc1ccc(NC(=O)Nc2cccc3[nH]ccc23)cc1)Nc1cccc2[nH]ccc12 [Compound 1, 3-(1H-indol-4-yl)-1-(4-{[(1H-indol-4-yl)carbamoyl]amino}phenyl)urea]	–	52.6	non cytotoxic	–	non-significant	did not induce cytotoxicity
